Assay results as given in patent publication US6569891B1, “Antihypertensive compound from Caesalpinia brasiliensis” (Brigham Young University, priority 2002, dated 2003).

Columns and labels:
[1] = system: hypertensive Sprague-Dawley rats; experiment: antihypertensive activity, sample in drinking water of hypertensive rats, tail cuff systolic blood pressure; type: in vivo; conditions: 100 μg/ml in drinking water, after 36 hours; for reduction in systolic blood pressure: tail cuff
Procedure: The crude extract and HPLC fractions prepared according to the procedure of Example 1 (with a preparative-scale (21.4×250 mm) column), were tested for antihypertensive activity by adding the sample to be tested at a concentration of 100 μg/ml to the drinking water of hypertensive Sprague-Dawley rats. After 36 hours, systolic blood pressures were measured with a Harvard tail cuff apparatus attached to a Beckman R511A recorder.

[2] = conversion of brazilin in hot water; type: physicochemical

| Structure (SMILES) | systolic blood pressure after treatment ([1]; brought into the normal range) | reduction in systolic blood pressure [1] | stability in hot water [2] |
| --- | --- | --- | --- |
| Oc1cc2c(cc1O)C13c4ccc(O)c(O)c4OCC1(C2)OC1(O)CC=C2CC4(O)COc5c(ccc(O)c5O)C4=C2C13 (single isomer, unassigned) [peak A] | 110-120 mm Hg | about 35% |  |
| Oc1ccc2c(c1)OC[C@]1(O)Cc3cc(O)c(O)cc3[C@H]21 [Brazilin, brazilin] |  |  | slowly converted to haematoxylin |
| Oc1cc2c(cc1O)C1c3ccc(O)c(O)c3OCC1(O)C2 (single isomer, unassigned) [Peak B, haematoxylin] |  | ~12% |  |
